# Experiments:
# [1] = molecular target: GDP-bound KRAS protein (aa 1-169), G12D and C118A; SOS-mediated nucleotide exchange (Homo sapiens (Human), UniProt P01116, C118A/G12D); test: KRAS G12D Coupled Nucleotide Exchange Assay; assay type: biochemical; conditions: 2 h compound pre-incubation, GTP, cRAF AlphaScreen
# Procedure, shortened: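 GDP-loaded KRAS (aa 1-169, G12D/C118A, N-His) preincubated 2 h with titrated compound in pH 7.4 HEPES/MgCl2/Triton buffer. SOS (aa 564-1049) plus GTP then added for 30 min. AlphaScreen readout; IC50 from 4-parameter logistic fit.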
# [2] = tested on: Phosphorylation of ERK1/2 in AsPC-1 cells; test: Phospho-ERK1/2 MSD Assay; assay type: cell-based; conditions: Homo sapiens, ASPC1, 2 h, read-out: 2 h p-ERK (AsPC-1 cells), IC50 (μM), AsPC-1 cells, 2 h compound treatment
# Procedure, shortened: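 AsPC-1 cells in 10% FBS RPMI 1640 were treated with a compound dose titration for 2 h at 37° C, then lysed in RIPA buffer with protease and phosphatase inhibitors. Phospho-ERK1/2 was measured by MSD whole-cell lysate immunoassay, and IC50 was derived by 4-parameter logistic fit.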
# [3] = molecular target: His-tagged KRAS G12D protein (Homo sapiens (Human), UniProt P01116, G12D); test: KRAS G12D TR-FRET Assay; assay type: binding; conditions: biotinylated KRPep-2d, 10 μM GDP
# Procedure, shortened: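 His-KRAS G12D (20 nM working solution) preincubated with compound 30 min at rt in HEPES pH 7.4 buffer with 10 μM GDP, then biotinylated KRPep-2d added for 1 h. Eu-anti-His/streptavidin-d2 TR-FRET 665/615 ratio; IC50 from 4-parameter logistic fit.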
# Sequence of GDP-bound KRAS protein (aa 1-169), G12D and C118A; SOS-mediated nucleotide exchange (P01116 other isoform, or with tags, fused parts or gaps G12D/C118A): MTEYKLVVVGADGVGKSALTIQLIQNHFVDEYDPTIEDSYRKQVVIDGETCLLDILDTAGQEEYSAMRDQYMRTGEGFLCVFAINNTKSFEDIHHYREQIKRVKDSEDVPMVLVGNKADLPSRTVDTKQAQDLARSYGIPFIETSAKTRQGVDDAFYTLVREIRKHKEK
# Sequence of His-tagged KRAS G12D protein (P01116-2 other isoform, or with tags, fused parts or gaps G12D): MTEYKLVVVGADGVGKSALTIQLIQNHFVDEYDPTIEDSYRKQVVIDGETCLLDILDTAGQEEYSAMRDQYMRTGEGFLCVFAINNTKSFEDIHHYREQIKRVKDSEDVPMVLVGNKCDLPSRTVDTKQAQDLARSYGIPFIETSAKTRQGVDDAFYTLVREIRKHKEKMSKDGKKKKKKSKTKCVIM
IC50 [1] [nM],IC50 [2] [µM],IC50 [3] [nM],SMILES
19,0.845,34,"N#Cc1c(N)sc2c(F)ccc(-c3c(Cl)cc4c(C5=CCCOC5)nc(OC[C@@]56CCCN5C[C@H](F)C6)nc4c3F)c12 [Example 70, 2-Amino-4-(6-chloro-4-(5,6-dihydro-2H-pyran-3-yl)-8-fluoro-2-(((2R,7aS)-2-fluorotetrahydro-1H-pyrrolizin-7a(5H)-yl)methoxy)quinazolin-7-yl)-7-fluorobenzo[b]thiophene-3-carbonitrile bis(2,2,2-trifluoroacetate)]"
5,0.185,11,"N#Cc1c(N)sc2c(F)ccc(-c3c(Cl)cc4c(C5CC5)nc(OC[C@@]56CCCN5C[C@H](F)C6)nc4c3F)c12 [Example 71, 2-Amino-4-(6-chloro-4-cyclopropyl-8-fluoro-2-(((2R,7aS)-2-fluorotetrahydro-1H-pyrrolizin-7a(5H)-yl)methoxy)quinazolin-7-yl)-7-fluorobenzo[b]thiophene-3-carbonitrile bis(2,2,2-trifluoroacetate)]"

# From patent publication US20250163064A1, “QUINAZOLINE COMPOUNDS AND USES THEREOF AS INHIBITORS OF MUTANT KRAS PROTEINS” (AMGEN INC., priority 2022, published 2025)
